Laboratory results published in patent US20010016605A1, “Use of a phenylurea derivative for controlling crown and root rot in beet” (priority 2000, published 2001).

Test system: Rhizoctonia solani AG 2-2
Assay: Inhibition of the growth of Rhizoctonia solani AG 2-2 on nutrient medium / protective
Type: cell-based
Details: 0% = untreated control, 100% = complete inhibition of fungal growth, evaluation after 2 to 14 days
Protocol: Inhibition of the growth of Rhizoctonia solani AG 2-2 (anastomosis group 2-2)/protective
The substances are tested on suitable nutrient media for their activity against Rhizoctonia solani AG 2-2. To this end, the stated amount of active compound is in each case added to and intensively mixed with the stated amount of nutrient medium. The mixture in question is transferred into a culture vessel, inoculated with Rhizoctonia solani AG 2-2 and incubated at a suitable temperature. At certain intervals, the growth of the microorganism is assessed.
A nutrient medium of the following composition is used:
These components are dissolved in 1000 ml of distilled water and autoclaved at 121° C. for 30 minutes. The active compound at the stated concentration is then mixed with the nutrient medium. However, in all cases solvent and nutrient medium are present in the following weight ratio:
These mixtures are poured into Petri dishes having a diameter of 9 cm and a volume of 10 ml. Once the nutrient substrate has cooled and solidified, it is inoculated in the centre of the Petri dish with an inoculation piece having a diameter of 0.5 cm.
Evaluation is carried out after 2 to 14 days—depending on the rate of growth of the microorganism. The effect on the development of the culture is determined by comparing the individual test samples. 0% means an efficacy which corresponds to that of the untreated test variant. In contrast, an efficacy of 100% means complete inhibition of fungal growth.

[1] = active compound application rate 0.1 ppm in nutrient medium
[2] = active compound application rate 1 ppm in nutrient medium
[3] = active compound application rate 10 ppm in nutrient medium
[4] = active compound application rate 100 ppm in nutrient medium

Row | SMILES | Efficacy in % [1] [%] | Efficacy in % [2] [%] | Efficacy in % [3] [%] | Efficacy in % [4] [%]
1 | CO/C=C(/C(=O)OC)c1ccccc1Oc1cc(Oc2ccccc2C#N)ncn1 [azoxystrobin] | 45 | 48 | 59 | 64
2 | Cc1cc(O)no1 [hymexazol] | 7 | 5 | 8 | 35
3 | O=C(Nc1ccccc1)N(Cc1ccc(Cl)cc1)C1CCCC1 [pencycuron, N-4-chloro-benzyl-N-cyclopentyl-N′-phenylurea] | 70 | 98 | 100 | 100
